# Measurements as given in article PMC6481345, “A novel anti-melanoma SRC-family kinase inhibitor” (Oncotarget, 2019).
# What was measured:
# [1] = test system: YULIPPY melanoma cells; test: CellTiter-Glo Luminescent Cell Viability Assay; type: cell-based; conditions: Homo sapiens, BRAF V600E, 72 hrs
# Protocol: (§1) The melanoma cells were grown in OptiMEM (Invitrogen, Carlsbad, CA) supplemented with 5% fetal calf serum and antibiotics. The normal human melanocytes (NBMEL) were grown in medium supplemented with bFGF, IBMX and dbcAMP [32]. Most of the Yale melanoma cell lines were characterized by next-generation sequencing (Supplementary Table 2).
# (§2) Cell proliferation was measured with the CellTiter-Glo® Luminescent Cell Viability Assay (Promega Corporation, Madison, WI). Melanoma cells were seeded in 96-well plates in triplicate or quadruplet wells, with increasing concentrations of kinase inhibitors for 72 hrs. The rate of proliferation was also tested after knockdown of different SRC-family kinases (SFK) with hairpin lentivirus shRNA as indicated. […] The statistical significance of synergism of response to drug combinations was evaluated by following Chou and Talalay algorithm. See also details in Supplementary Material.
# [2] = test system: YUFURL melanoma cells; test: CellTiter-Glo Luminescent Cell Viability Assay; type: cell-based; conditions: Homo sapiens, NRAS G12D, 72 hrs
# Protocol: as §1, §2
# [3] = test system: YUTOGS melanoma cells; test: CellTiter-Glo Luminescent Cell Viability Assay; type: cell-based; conditions: Homo sapiens, WT/WT, 72 hrs
# Protocol: as §1, §2
# [4] = test system: YUMAC melanoma cells; test: CellTiter-Glo Luminescent Cell Viability Assay; type: cell-based; conditions: Homo sapiens, BRAF V600K, 72 hrs
# Protocol: as §1, §2
# [5] = test system: YUHIMO melanoma cells; test: CellTiter-Glo Luminescent Cell Viability Assay; type: cell-based; conditions: Homo sapiens, PDE4DIP-BRAF fusion, 72 hrs
# Protocol: as §1, §2
# [6] = test system: YUHEF melanoma cells; test: CellTiter-Glo Luminescent Cell Viability Assay; type: cell-based; conditions: Homo sapiens, WT/WT, 72 hrs
# Protocol: as §1, §2
# [7] = test system: SK-MEL-28 melanoma cells; test: CellTiter-Glo Luminescent Cell Viability Assay; type: cell-based; conditions: Homo sapiens, SK-MEL-28, BRAF V600E, 72 hrs
# Protocol: as §1, §2
# [8] = test system: YUCHIME melanoma cells; test: CellTiter-Glo Luminescent Cell Viability Assay; type: cell-based; conditions: Homo sapiens, BRAF V600K/M, 72 hrs
# Protocol: as §1, §2
# [9] = test system: YUGEN8 melanoma cells; test: CellTiter-Glo Luminescent Cell Viability Assay; type: cell-based; conditions: Homo sapiens, YUGEN8, BRAF V600E, 72 hrs
# Protocol: as §1, §2
# [10] = test system: YUDOSO melanoma cells; test: CellTiter-Glo Luminescent Cell Viability Assay; type: cell-based; conditions: Homo sapiens, NRAS Q61K, 72 hrs
# Protocol: as §1, §2
# [11] = test system: YUKSI melanoma cells; test: CellTiter-Glo Luminescent Cell Viability Assay; type: cell-based; conditions: Homo sapiens, BRAF V600K, 72 hrs
# Protocol: as §1, §2
# [12] = test system: YUROL melanoma cells; test: CellTiter-Glo Luminescent Cell Viability Assay; type: cell-based; conditions: Homo sapiens, WT/WT, 72 hrs
# Protocol: as §1, §2
# [13] = test system: YUZEST melanoma cells; test: CellTiter-Glo Luminescent Cell Viability Assay; type: cell-based; conditions: Homo sapiens, BRAF V600E, 72 hrs
# Protocol: as §1, §2
# [14] = test system: YUGANK melanoma cells; test: CellTiter-Glo Luminescent Cell Viability Assay; type: cell-based; conditions: Homo sapiens, NRAS Q61K, 72 hrs
# Protocol: as §1, §2
# [15] = test system: YUTICA melanoma cells; test: CellTiter-Glo Luminescent Cell Viability Assay; type: cell-based; conditions: Homo sapiens, NRAS Q61R, 72 hrs
# Protocol: as §1, §2
# [16] = test system: YUNIS melanoma cells; test: CellTiter-Glo Luminescent Cell Viability Assay; type: cell-based; conditions: Homo sapiens, HRAS Q61K, 72 hrs
# Protocol: as §1, §2
# [17] = test system: YUPEPO melanoma cells; test: CellTiter-Glo Luminescent Cell Viability Assay; type: cell-based; conditions: Homo sapiens, WT/WT, GNA11 Q209L, 72 hrs
# Protocol: as §1, §2
# [18] = test system: SK-MEL-23 melanoma cells; test: CellTiter-Glo Luminescent Cell Viability Assay; type: cell-based; conditions: Homo sapiens, SK-MEL-23, WT/WT, 72 hrs
# Protocol: as §1, §2
# [19] = test system: YURIF melanoma cells; test: CellTiter-Glo Luminescent Cell Viability Assay; type: cell-based; conditions: Homo sapiens, BRAF V600K, 72 hrs
# Protocol: as §1, §2
# [20] = test system: YUCRATE melanoma cells; test: CellTiter-Glo Luminescent Cell Viability Assay; type: cell-based; conditions: Homo sapiens, BRAF G469A, 72 hrs
# Protocol: as §1, §2
# [21] = target: SRC (Homo sapiens, UniProt P12931); test: KiNativ in situ kinase profiling in melanoma cell lysates; type: binding; parameters: the endogenous kinome response to SAB298 (0.05 µM, 0.5 µM and 5 µM) in lysates from two melanoma cell lines; host or cells: YUSIV and YUSIK melanoma cell lysates
# Sequence of SRC (P12931 whole entry): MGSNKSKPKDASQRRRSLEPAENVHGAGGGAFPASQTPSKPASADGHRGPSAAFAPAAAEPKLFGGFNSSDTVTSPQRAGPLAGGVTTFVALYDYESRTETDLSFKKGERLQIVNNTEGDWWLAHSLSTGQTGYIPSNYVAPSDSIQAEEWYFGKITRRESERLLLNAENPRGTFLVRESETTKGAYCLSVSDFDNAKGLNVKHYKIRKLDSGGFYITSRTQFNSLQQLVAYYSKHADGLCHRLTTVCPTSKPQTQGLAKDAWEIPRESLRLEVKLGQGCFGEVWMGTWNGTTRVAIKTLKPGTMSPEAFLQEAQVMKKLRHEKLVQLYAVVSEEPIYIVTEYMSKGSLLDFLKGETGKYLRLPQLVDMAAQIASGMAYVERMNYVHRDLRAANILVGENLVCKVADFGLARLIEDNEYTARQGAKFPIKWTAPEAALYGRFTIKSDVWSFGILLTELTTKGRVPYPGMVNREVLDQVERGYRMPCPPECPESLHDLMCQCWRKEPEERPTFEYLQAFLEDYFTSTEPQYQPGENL
# Protocol: (§3) The effect of SAB298 on a panel of 36 recombinant kinases, was screed with the radioisotope filter binding assay employing 10 concentrations of the compound with 10 µM ATP (Reaction Biology Corporation, Malvern, PA). In addition, we tested the endogenous kinome response to SAB298 (0.05 µM, 0.5 µM and 5 µM) in lysates from two melanoma cell lines (YUSIV and YUSIK) employing the KiNativ® platform (ActivX Biosciences Inc., La Jolla, CA). KiNativ® is a robust, high performance mass spectrometry (LC-MS^2) assay that uses biotinylated probes to measure relevant changes in the affinity to the ATP-binding sites of 205 native kinases as a function of cellular context. We also validated SAB298 effect on the activity of SRC-family kinases by probing for phosphorylated Y416, the marker of activated SFKs, with anti-IEDNEpYTAR antibodies (also known as Y419, #2101, Cell Signaling Technology, Beverly, MA). In some cases the cells were incubated overnight with 20 µM proteasome inhibitor MG-132 (CAS 133407-82-6, Millipore Sigma, Burlington, MA) to rescue degradation.
# [22] = target: LYN (Homo sapiens, UniProt P07948); test: as above; type: binding; parameters: the endogenous kinome response to SAB298 (0.05 µM, 0.5 µM and 5 µM) in lysates from two melanoma cell lines; host or cells: YUSIV and YUSIK melanoma cell lysates; conditions: 3-point dose response
# Sequence of LYN (P07948 whole entry): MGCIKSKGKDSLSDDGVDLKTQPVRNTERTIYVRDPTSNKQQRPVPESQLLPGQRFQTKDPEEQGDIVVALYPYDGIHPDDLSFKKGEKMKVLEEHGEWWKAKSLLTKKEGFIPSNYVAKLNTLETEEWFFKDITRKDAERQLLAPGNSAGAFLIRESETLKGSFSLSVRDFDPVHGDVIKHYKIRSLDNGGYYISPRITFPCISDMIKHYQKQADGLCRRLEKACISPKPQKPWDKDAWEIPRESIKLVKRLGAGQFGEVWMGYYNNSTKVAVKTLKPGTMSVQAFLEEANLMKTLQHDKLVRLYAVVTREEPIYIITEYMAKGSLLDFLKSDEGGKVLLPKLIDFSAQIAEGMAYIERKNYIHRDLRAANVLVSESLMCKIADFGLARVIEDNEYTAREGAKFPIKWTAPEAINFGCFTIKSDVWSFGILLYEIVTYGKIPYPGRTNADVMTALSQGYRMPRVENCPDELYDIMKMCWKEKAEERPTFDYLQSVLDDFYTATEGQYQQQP
# Protocol: as §3
compound,measurement,setting,value
"Nc1ncnc2c1c(-c1ccc(Oc3ccccc3)cc1)nn2C[C@@H]1SSC[C@@H]1O [SAB298, (3S, 4S)-3-((4-amino-3-(4-phenoxyphenyl)-1H-pyrazolo[3,4-d]pyrimidin-1-yl)methyl)-1,2-dithiolan-4-ol]",IC50,[1],111 nM
same,IC50,[2],371 nM
same,IC50,[3],347 nM
same,IC50,[4],894 nM
same,IC50,[5],237 nM
same,IC50,[6],257 nM
same,IC50,[7],812 nM
same,IC50,[8],2480 nM
same,IC50,[9],115 nM
same,IC50,[10],2360 nM
same,IC50,[11],582 nM
same,IC50,[12],717 nM
same,IC50,[13],263 nM
same,IC50,[14],456 nM
same,IC50,[15],766 nM
same,IC50,[16],2580 nM
same,IC50,[17],264 nM
same,IC50,[18],162 nM
same,IC50,[19],500 nM
same,IC50,[20],282 nM
same,higher binding affinity in KiNativ assay compared to radioisotope filtration binding assay,[21]; SRC,~10 fold
same,IC50,"[21]; SRC in YUSIV lysate, 3-point dose response",31 nM
same,IC50,[22]; LYN in YUSIK lysate,190 nM
same,IC50,[22]; LYN in YUSIV lysate,60 nM
